Experimental data published in patent publication US4143055A, “2,4,6-Trisubstituted-2,3-dihydro-benzofuran derivatives” (Gruppo Lepetit S.p.A., priority 1978, dated 1979).

How the values were obtained:
[1] = Acute oral toxicity in rats (LD50, Lichtfield and Wilcoxon); conditions: rat, in vivo, rats p.o. (table)
Procedure: The toxicities were determined according to Lichtfield and Wilcoxon, Journ. Pharm. Expt. Ther., 96, 99, 1949.

[2] = test system: carrageenin induced edema; assay: Carrageenin induced edema in the rat paw; assay type: in vivo; conditions: dosage around 1/5 of its LD50
Procedure: (§1) The antiinflammatory activity was ascertained by means of several testing methods; in one, the ability of the compounds of the invention to reduce the edema induced in the rat paw by injection of carrageenin was evaluated and the test was performed according to the methodology described by C. A. Winter et al. in Proc. Soc. Exptl. Biol. Med. 111, 544, (1962). In another it was investigated the reduction by the test compounds of the weight of the granuloma formed on a cotton pellet implanted subcutaneously in a rat, following the method described by Meier et al. in Experientia 6, 469, (1950).
(§2) Representative experiments have shown that the compounds of Example 11, namely 2,3-dihydro-6-methoxy-N,2-dimethyl-4-benzofuranamine causes a reduction of the carrageenin induced edema of around 70 percent over the controls even when it is administered at an absolutely safe dosage i.e., around 1/5 of its LD50. In the granuloma cotton pellet test the same compound at the same dosage reduces the weight of the granuloma of more than 40 percent again over the controls.

[3] = test system: adjuvant induced arthritis; assay: Adjuvant induced arthritis test in rats; assay type: in vivo; conditions: for % reduction of the volume of the hind paws over the controls: rats p.o., Dose 200 mg/kg
Excerpt: However, the most important pharmacological aspect of the compounds of the present invention is that they are effective also in the adjuvant induced arthritis test in rats. Said test is absolutely meaningful in that adjuvant arthritis is one of the best pharmacological parameters with which a pharmacologist can investigate compounds as to their possible antinflammatory activity, owing to the parallelism of effects existing between it and some articulation diseases observed in humans (see Pearson, C. M., Arthritis and allied conditions, page 119, Lea and Febiger Publ., 1967 and Pearson, C. M., J. Chronic Diseases, 16, 863, 1963).
The adjuvant induced arthritis test was performed as described by B. B. Newbould in Brit. Jour. Pharmacol., 21, 127, (1963). The measure of effectiveness of the compounds in this test is given by their ability in reducing the volume of the hind paws of the laboratory animals. […] The obtained results, which are summarized in the following table, were obtained by testing the compounds at a dosage corresponding to 1/5 of their LD50.

[4] = test system: granuloma formed on a cotton pellet implanted subcutaneously; assay: Granuloma cotton pellet test; assay type: in vivo; conditions: rat; same dosage, around 1/5 of its LD50
Procedure: as §1, §2

SMILES | LD50 [1] | reduction of the carrageenin induced edema over the controls [2] | % reduction of the volume of the hind paws over the controls [3] | activity in the adjuvant induced arthritis test compared with acetylsalicylic acid ([3]; rats, dosage corresponding to 1/5 of their LD50) | reduction of the weight of the granuloma over the controls [4]
CNc1cc(OC)cc2c1CC(C)O2 (stereo not drawn) [Example 11, 2,3-dihydro-6-methoxy-N,2-dimethyl-4-benzofuranamine] | 2800 mg/kg | around 70% | 36% | significantly more active | more than 40%
CC(=O)Oc1ccccc1C(=O)O [acetylsalicylic acid, reference compound] |  |  | 25% |  | 
